Measurements published in patent US20130302389A1, “COSMETIC COMPOSITION CONTAINING AT LEAST TWO OSMOLYTES WITH A MOISTURIZING OR ANTIAGING EFFECT” (LVMH Recherche, priority 2008, published 2013).

System: HSPA1A
Assay: Stimulation of HSPA1A mRNA expression in normal human epidermal keratinocytes (RT-QPCR)
Assay type: cell-based
Settings: 24 hours, mRNA by RT-QPCR relative to G3PDH, control (untreated cells) normalized to 100% expression
Experimental: Cell type: normal human keratinocytes (NHK) as an immersed monolayer, strongly post-confluent and at the third subculture.
Culture medium: low-calcium K-SFM (Invitrogen) supplemented with Epidermal Growth Factor (EGF Sigma) at 2.5 ng/ml, pituitary extract (EP Invitrogen) 2.5 μg/ml and gentamicin (Sigma) 25 μg/ml. For the treatments with the various compounds, this medium is replaced with K-SFM medium not supplemented with EGF and EP.
Treatment time: 24 hours with the various kosmotropes, and other molecules or extracts, and combinations thereof.
Test compounds: the taurine, D-trehalose, inositol and betaine (Sigma) are dissolved in the culture medium and tested at concentrations of 166 and 500 μg/ml, or, when this was not possible for reasons of solubility or cytotoxicity, at substantially lower concentrations.
The combination of these four compounds in proportions of 1/1/1/1 by weight is tested at the same concentrations.
Assays of the mRNA of HMSPA1A by RT-QPCR: at the end of the incubation period, the culture supernatants are removed and the cells, rinsed with PBS (Invitrogen), are covered with a solution of Tri-reagent (Sigma) and then frozen immediately at −80° C.
Extraction of the total RNA is performed according to the protocol of the Tri-reagent supplier (Sigma) and removal of the traces of DNA is performed with the DNA-free kit (Ambion). The reverse transcription reaction is performed using Oligo(dT) primers and the enzyme superscript II (Gibco).
The PCR (Polymerase Chain Reaction) reactions are performed using a Light Cycler (Roche Molecular Systems, Inc.) and according to the procedures recommended by the supplier. The pairs of primers used in this study allow amplification of the following fragments:
Homo sapiens heat shock protein HSP70 protein 1A (abbreviation HSPA1A; Gene bank NM 02045; fragment size 213 bp) and liver glyceraldehyde 3-phosphate dehydrogenase 1A (abbreviation G3PDH; Gene bank NM 02046; fragment size 269 bp) serving as the reference gene (caretaker gene) for determining the relative expression of the target HSPA1A.
The reaction medium (10 μl) is formed from the primers for the two target mRNAs (HSPA1A and G3PDH), 2.5 μl of tenfold-diluted cDNA, reaction mixture (Roche) containing the enzyme Taq DNA polymerase, SYBR Green I fluorochrome (which becomes incorporated into the double-stranded DNA during the elongation step), and MgCl2.
The incorporation of fluorescence into the amplified DNA is measured continuously in the course of the PCR cycles. For the same used marker, the later a sample leaves (high number of cycles), the lower the initial number of copies of mRNA.
Normal human keratinocyte cultures are treated for 24 hours with noncytotoxic doses (166 and 500 μg/ml) of each of the four osmolytes separately: taurine, D-trehalose, inositol and betaine. The transcriptional expression of HMSPA1A is measured by RT-PCR.
The control (untreated cells) is normalized to correspond to 100% expression.

Structure (SMILES)	stimulation of expression of HSPA1A (166 μg/ml)	stimulation of expression of HSPA1A (500 μg/ml)
OC[C@H]1O[C@H](O[C@H]2O[C@H](CO)[C@@H](O)[C@H](O)[C@H]2O)[C@H](O)[C@@H](O)[C@@H]1O [D-trehalose]	142%	181%
NCCS(=O)O [Hypotaurine, hypotaurine]	379%	
C[N+](C)(C)CC(=O)O [betaine]	52%	85%
NCCS(=O)(=O)O [taurine]	171%	139%
O[C@H]1[C@H](O)[C@@H](O)[C@H](O)[C@@H](O)[C@H]1O [inositol]	90%	101%
